From patent publication US20070219213A1, “Use of Adrenergic N-Phenylpiperazine Antagonists, Pahrmaceutical Compositions Containning Them, and Methods of Preparing Them” (priority 2004, published 2007) come the findings set out here.

The subject of series [1] is alpha 1A and alpha 1B adrenoceptors (rabbit aorta, α1A > α1B). In words: Vasoconstriction assay in rabbit aorta induced by phenylephrine. The series is classed as cell-based. The following applies: for pKB (apparent antagonist potency): Schild equation, 3-300 nM. Here is the method: Vasoconstriction Assay in Rabbit Aorta Induced by Phenylephrine
Aorta rings withdrawn from young male rabbits (1500-1700 g) were tensionated to 2 g (20 mN) and kept in Krebs solution, containing 10 mM Hepes, for 30 minutes, under continuous aeration. During this period, eventual tension adjustments were performed until stabilization in 2 g, always with renewal of Krebs solution. Then, vasoconstrictions were induced by 60 mM KCl solution, in each ring, to verify the viability of the organ on the day of the experiment. The preparation was submitted to contraction with phenylephrine (5×10^−5 M) and, then the rings were washed to reach the basal line (0% of vasoconstriction). The procedure was repeated until obtainment of a constant curve. Then, a curve, using increasing concentrations of phenylephrine (5×10^−9-5×10^−4 M), was performed for each ring, as a positive control. The segments were washed to reach the basal line (0% of vasoconstriction) and incubated with the test compounds, individually, for 30 minutes. A second phenylephrine curve was performed and the obtained data compared to the first control curve. The results were analyzed by one-way ANOVA software from Microcal Origin 4.1. The aorta rings were used once for each compound.
Determination of the LASSBio 772 Antagonist Potency (pKB) on the Vasoconstriction of Rabbit or Rat Thoracic Aorta.
cr is the ratio between phenylephrine concentrations in the presence and absence of antagonist; and
B is the antagonist's concentration.

Another series has as its target T1, alpha 1B subtype (Rattus norvegicus, UniProt P15823).
T1 construct: from tissue; host or cells: rat liver homogenate/membranes
T1 sequence (P15823 1-515): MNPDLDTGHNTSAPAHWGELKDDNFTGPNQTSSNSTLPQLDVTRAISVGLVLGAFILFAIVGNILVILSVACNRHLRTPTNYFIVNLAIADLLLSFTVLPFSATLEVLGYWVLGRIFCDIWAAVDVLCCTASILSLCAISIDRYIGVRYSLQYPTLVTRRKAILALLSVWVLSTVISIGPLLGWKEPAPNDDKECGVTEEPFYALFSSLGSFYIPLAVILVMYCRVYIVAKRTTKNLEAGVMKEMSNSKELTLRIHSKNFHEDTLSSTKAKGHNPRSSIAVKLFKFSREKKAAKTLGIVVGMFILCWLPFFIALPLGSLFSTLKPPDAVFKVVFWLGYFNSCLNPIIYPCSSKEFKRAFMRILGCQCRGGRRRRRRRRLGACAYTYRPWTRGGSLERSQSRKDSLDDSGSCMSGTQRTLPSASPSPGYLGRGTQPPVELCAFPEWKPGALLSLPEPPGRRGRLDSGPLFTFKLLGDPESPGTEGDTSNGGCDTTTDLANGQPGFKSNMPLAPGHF
In words: [3H]prazosin binding assay in rat liver.

Series [2] can be described thus: Arterial pressure effects in anesthetized rabbits. In kind it is in vivo. The following applies: rabbit. Here is the method:
(§1) Animal and Homodynamic Measurements:
(§2) The experiments were performed with male rabbits weighing 3 kg, from the CECAL (Centro de Criação de Animais de Laboratório) at Fundação Oswaldo Cruz. The animals were anesthetized with sodium pentobarbital (40 mg/kg) in the ear marginal vein, and anesthesia maintenance was obtained with supplemental intravenous (i.v.) doses of 5 mg/kg as necessary. The […] were tracheomized, inserted with a polyethylene canule, and immobilized with pancuronium bromide (1 mg/kg, i.v.), with supplemental doses of 0.2 mg/kg for each hour of experiment and artificially ventilated with a mechanical fan (Rodent ventilator 7025, Ugo Basile) with a volume of 10 ml/kg and frequency from 40 to 50 incursions/min. The right femoral vein was catheterized for drug administration.
(§3) The arterial pressure was monitored through abdominal aorta catheter via the right femoral artery and connected to a quartz transductor Hewlett Packard (1290 A), which was connected to an arterial pressure processor and recorder Hewlett Packard (system 7754 with amplifier 8805 B).
(§4) The systolic (SAP) and diastolic (DAP) arterial pressures were obtained directly from the records and the average arterial pressure (AAP) was calculated by DAP's Sum with a third of the differential pressure [[…]]. The cardiac frequency was determined by counting the pressure waves, visualized with the speed increase of the recorder paper.
(§5) The cardiac debit (DC) was monitored using an electromagnetic probe, connected to a Skalar flowmeter model MDL 1401. After left thoraxatomy, between the second and third ribs, was made an incision in the pericardium and the heart was exposed to enable the visualization and dissection of the ascending aorta for installation of the electromagnetic probe. The systemic vascular resistance (SVR) was calculated as a quotient of the average arterial pressure by the cardiac debit, multiplied by a conversion factor 80 (SVR=AAP/DC×80) and expressed in dyn/seg/cm-5.
(§6) At the conclusion of the anesthetic-surgical procedures, a 15-minute period was allowed for stabilization of the homodynamic parameters. Before any pharmacological manipulation the average arterial pressure, cardiac frequency and cardiac debit measurements were obtained. These values were considered basal homodynamic values.
The results were expressed as average±standard deviation (E.P.M.) The administration effects of LASSBio 772 with regard to the basal values were analyzed through variance analysis (ANOVA) for repeated measurements. When a significant statistical difference was found in the test ANOVA, the test Newman-Keuls was used to locate the differences. The paired t test was used to analyze the phenylephrine pressure effects before and after the treatment with LASSBio 772B. Differences with p<0.05 were considered significant. All the calculations were done on the computer, using the statistic software Instat-2.0.
Arterial Pressure Effects of LASSBio 772 Administration: […]

The subject of series [3] is phenylephrine vasopressor effects. In words: Inhibition of phenylephrine vasopressor effects in anesthetized rabbits. The series is classed as in vivo. The settings on record: rabbit, i.v., versus control curve. Here is the method:
as §1, §2, §3, §4, §5, §6
Dose-Response Curve of the Phenylephrine Vasopressor Effect:
After surgical procedures and stabilization of the homodynamic parameters, a dose-response curve of the phenylephrine pressure effects was performed ([…], i.v.), that were named control curves. […]
The results were expressed as average±standard deviation (E.P.M.) The administration effects of LASSBio 772 with regard to the basal values were analyzed through variance analysis (ANOVA) for repeated measurements. […]

Each structure is given as a SMILES string. Entries after “also recorded” stand apart in the source; their conditions may differ. Where only a bound is given, the exact number is not on record here.

The term IC50 denotes the concentration needed to halve the response being measured.

With `COc1ccccc1N1CCN(CCc2ccc3c(c2)OCO3)CC1` [LASSBio 772, 1-(2-1,3-Benzodioxol-5-yl-ethyl)-4-(2-methoxy-phenyl)-piperazine], the “antagonist activity on vasoconstriction” value in series [1] (30 microM compound, 5×10^−4 M phenylephrine) is on record as “significant antagonist activity”. Moreover, in series [1] (rabbit aorta, phenylephrine), the Kb is around 0.0141 µM and the “pKB (apparent antagonist potency)” value turned out to be 7.85. In series [1] (rabbit aorta, phenylephrine, listed as LASSBio-772), the “pKB (apparent antagonist potency)” value is recorded as “around 7.85”. Moreover, the concentration for half-maximal inhibition (IC50) at alpha 1B subtype stood at 0.45 µM. Further, in series [2] (100 μg/kg i.v.), the “reduction of arterial pressure” value is given as around 10%. For the same compound, in series [2] (100 μg/kg i.v., n=5), the “average arterial pressure (AAP)” value worked out at 79±4 mmHg, the “diastolic arterial pressure (DAP)” value turned out to be 71±4 mmHg and the “systolic arterial pressure (SAP)” value is listed as 94±7 mmHg. Moreover, the hypotension entry in series [2] (i.v.) is given as “without however causing significant clinically hypotension”. In addition, the “dose from which a significant hypo-tensor response was induced” value in series [2] (i.v., doses 1-100 μg/kg, versus basal values) is at least 3 µg/kg. Besides, the “blockade of phenylephrine effects” value in series [3] is listed as “significantly blocked; also recorded: prevented the phenylephrine hypo-tensor effect”.
